Measured values published in PubChem BioAssay (NCI).
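Cells were grown in 96-well plates and exposed to each compound for 48 hours at five concentrations; endpoints were interpolated linearly between bracketing concentrations, or set to the highest concentration if not reached. TGI denotes the concentration required for complete inhibition of growth.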

Experiments:
Assay in all cases: NCI anticancer screen, dose series, 48 h
OVCAR-5 ovarian = system: OVCAR-5 ovarian
K-562 leukemia = system: K-562 leukemia
SR leukemia = system: SR leukemia
TK-10 renal = system: TK-10 renal
MDA-N = system: MDA-N
OVCAR-3 ovarian = system: OVCAR-3 ovarian
A549 NSCLC = system: A549 NSCLC
PC-3 prostate = system: PC-3 prostate
HT29 colon = system: HT29 colon
MOLT-4 leukemia = system: MOLT-4 leukemia
UACC-62 melanoma = system: UACC-62 melanoma
U251 CNS = system: U251 CNS
SK-MEL-2 melanoma = system: SK-MEL-2 melanoma
RXF 393 renal = system: RXF 393 renal
SF-295 CNS = system: SF-295 CNS
LOX IMVI melanoma = system: LOX IMVI melanoma
NCI-H522 lung = system: NCI-H522 lung
NCI-H460 lung = system: NCI-H460 lung
SNB-19 CNS = system: SNB-19 CNS
NCI/ADR-RES ovarian = system: NCI/ADR-RES ovarian
HL-60(TB) leukemia = system: HL-60(TB) leukemia
IGROV1 ovarian = system: IGROV1 ovarian
SF-539 CNS = system: SF-539 CNS
MDA-MB-435 = system: MDA-MB-435
SNB-75 CNS = system: SNB-75 CNS
SK-OV-3 ovarian = system: SK-OV-3 ovarian
DU-145 prostate = system: DU-145 prostate
SN12C renal = system: SN12C renal
T-47D breast = system: T-47D breast
M14 melanoma = system: M14 melanoma
SK-MEL-28 melanoma = system: SK-MEL-28 melanoma
NCI-H23 lung = system: NCI-H23 lung
MALME-3M melanoma = system: MALME-3M melanoma
HOP-62 NSCLC = system: HOP-62 NSCLC
CAKI-1 renal = system: CAKI-1 renal
UACC-257 melanoma = system: UACC-257 melanoma
HOP-92 NSCLC = system: HOP-92 NSCLC
COLO 205 colon = system: COLO 205 colon
BT-549 breast = system: BT-549 breast
CCRF-CEM leukemia = system: CCRF-CEM leukemia
HCC-2998 colon = system: HCC-2998 colon
MCF7 breast = system: MCF7 breast
KM12 colon = system: KM12 colon
EKVX NSCLC = system: EKVX NSCLC
RPMI-8226 leukemia = system: RPMI-8226 leukemia
NCI-H226 lung = system: NCI-H226 lung
SF-268 CNS = system: SF-268 CNS
MDA-MB-231 breast = system: MDA-MB-231 breast
A498 renal = system: A498 renal
ACHN renal = system: ACHN renal
HCT-116 colon = system: HCT-116 colon
786-0 renal = system: 786-0 renal
SK-MEL-5 melanoma = system: SK-MEL-5 melanoma
OVCAR-4 ovarian = system: OVCAR-4 ovarian
UO-31 renal = system: UO-31 renal
HCT-15 colon = system: HCT-15 colon
OVCAR-8 ovarian = system: OVCAR-8 ovarian
SW-620 colon = system: SW-620 colon
HS 578T breast = system: HS 578T breast

## CCOP(=O)(OCC)C(Nc1cccc([N+](=O)[O-])c1)c1ccccc1 (configuration not stated)
OVCAR-5 ovarian
  TGI: > 100 µM
K-562 leukemia
  TGI: > 100 µM
SR leukemia
  TGI: > 100 µM
TK-10 renal
  TGI: > 100 µM
MDA-N
  TGI: > 100 µM
OVCAR-3 ovarian
  TGI: > 100 µM
A549 NSCLC
  TGI: > 100 µM
PC-3 prostate
  TGI: > 100 µM
HT29 colon
  TGI: > 100 µM
MOLT-4 leukemia
  TGI: > 100 µM
UACC-62 melanoma
  TGI: > 100 µM
U251 CNS
  TGI: > 100 µM
SK-MEL-2 melanoma
  TGI: > 100 µM
RXF 393 renal
  TGI: > 100 µM
SF-295 CNS
  TGI: > 100 µM
LOX IMVI melanoma
  TGI: > 100 µM
NCI-H522 lung
  TGI: > 100 µM
NCI-H460 lung
  TGI: > 100 µM
SNB-19 CNS
  TGI: > 100 µM
NCI/ADR-RES ovarian
  TGI: > 100 µM
HL-60(TB) leukemia
  TGI: > 100 µM
IGROV1 ovarian
  TGI: 25.5 µM
SF-539 CNS
  TGI: > 100 µM
MDA-MB-435
  TGI: > 100 µM
SNB-75 CNS
  TGI: > 100 µM
SK-OV-3 ovarian
  TGI: > 100 µM
DU-145 prostate
  TGI: > 100 µM
SN12C renal
  TGI: > 100 µM
T-47D breast
  TGI: 62.1 µM
M14 melanoma
  TGI: > 100 µM
SK-MEL-28 melanoma
  TGI: > 100 µM
NCI-H23 lung
  TGI: > 100 µM
MALME-3M melanoma
  TGI: > 100 µM
HOP-62 NSCLC
  TGI: > 100 µM
CAKI-1 renal
  TGI: > 100 µM
UACC-257 melanoma
  TGI: > 100 µM
HOP-92 NSCLC
  TGI: > 100 µM
COLO 205 colon
  TGI: > 100 µM
BT-549 breast
  TGI: > 100 µM
CCRF-CEM leukemia
  TGI: > 100 µM
HCC-2998 colon
  TGI: > 100 µM
MCF7 breast
  TGI: > 100 µM
KM12 colon
  TGI: > 100 µM
EKVX NSCLC
  TGI: > 100 µM
RPMI-8226 leukemia
  TGI: > 100 µM
NCI-H226 lung
  TGI: > 100 µM
SF-268 CNS
  TGI: > 100 µM
MDA-MB-231 breast
  TGI: > 100 µM
A498 renal
  TGI: > 100 µM
ACHN renal
  TGI: > 100 µM
HCT-116 colon
  TGI: > 100 µM
786-0 renal
  TGI: > 100 µM
SK-MEL-5 melanoma
  TGI: > 100 µM
OVCAR-4 ovarian
  TGI: > 100 µM
UO-31 renal
  TGI: > 100 µM
HCT-15 colon
  TGI: > 100 µM

## CCCCn1cnnc1NS(=O)(=O)c1cc(C)c(Cl)cc1SCC(=O)O
OVCAR-5 ovarian
  TGI: > 10 µM
K-562 leukemia
  TGI: > 10 µM
OVCAR-8 ovarian
  TGI: > 10 µM
TK-10 renal
  TGI: > 10 µM
MDA-N
  TGI: > 10 µM
OVCAR-3 ovarian
  TGI: > 10 µM
A549 NSCLC
  TGI: > 10 µM
PC-3 prostate
  TGI: > 10 µM
HT29 colon
  TGI: > 10 µM
MOLT-4 leukemia
  TGI: > 10 µM
UACC-62 melanoma
  TGI: > 10 µM
U251 CNS
  TGI: > 10 µM
SK-MEL-2 melanoma
  TGI: > 10 µM
RXF 393 renal
  TGI: > 10 µM
SF-295 CNS
  TGI: > 10 µM
LOX IMVI melanoma
  TGI: > 10 µM
NCI-H522 lung
  TGI: > 10 µM
NCI-H460 lung
  TGI: > 10 µM
SNB-19 CNS
  TGI: > 10 µM
NCI/ADR-RES ovarian
  TGI: > 10 µM
HL-60(TB) leukemia
  TGI: > 10 µM
IGROV1 ovarian
  TGI: > 10 µM
SF-539 CNS
  TGI: > 10 µM
MDA-MB-435
  TGI: > 10 µM
SNB-75 CNS
  TGI: > 10 µM
SK-OV-3 ovarian
  TGI: > 10 µM
DU-145 prostate
  TGI: > 10 µM
SN12C renal
  TGI: > 10 µM
T-47D breast
  TGI: > 10 µM
M14 melanoma
  TGI: > 10 µM
SK-MEL-28 melanoma
  TGI: > 10 µM
NCI-H23 lung
  TGI: > 10 µM
MALME-3M melanoma
  TGI: > 10 µM
HOP-62 NSCLC
  TGI: > 10 µM
CAKI-1 renal
  TGI: > 10 µM
UACC-257 melanoma
  TGI: > 10 µM
COLO 205 colon
  TGI: > 10 µM
BT-549 breast
  TGI: > 10 µM
CCRF-CEM leukemia
  TGI: > 10 µM
HCC-2998 colon
  TGI: > 10 µM
KM12 colon
  TGI: > 10 µM
EKVX NSCLC
  TGI: > 10 µM
RPMI-8226 leukemia
  TGI: > 10 µM
NCI-H226 lung
  TGI: > 10 µM
SF-268 CNS
  TGI: > 10 µM
MDA-MB-231 breast
  TGI: > 10 µM
A498 renal
  TGI: > 10 µM
SW-620 colon
  TGI: > 10 µM
HS 578T breast
  TGI: > 10 µM
ACHN renal
  TGI: > 10 µM
HCT-116 colon
  TGI: > 10 µM
786-0 renal
  TGI: > 10 µM
SK-MEL-5 melanoma
  TGI: > 10 µM
OVCAR-4 ovarian
  TGI: > 10 µM
UO-31 renal
  TGI: > 10 µM
HCT-15 colon
  TGI: > 10 µM

## O=C1Nc2ccccc2C1Cc1ccc([N+](=O)[O-])cc1 (configuration not stated)
OVCAR-5 ovarian
  TGI: > 100 µM
K-562 leukemia
  TGI: > 100 µM
SR leukemia
  TGI: > 100 µM
OVCAR-8 ovarian
  TGI: > 100 µM
TK-10 renal
  TGI: > 100 µM
MDA-N
  TGI: > 100 µM
OVCAR-3 ovarian
  TGI: > 100 µM
A549 NSCLC
  TGI: > 100 µM
PC-3 prostate
  TGI: > 100 µM
HT29 colon
  TGI: > 100 µM
MOLT-4 leukemia
  TGI: > 100 µM
UACC-62 melanoma
  TGI: > 100 µM
U251 CNS
  TGI: > 100 µM
SK-MEL-2 melanoma
  TGI: > 100 µM
RXF 393 renal
  TGI: > 100 µM
SF-295 CNS
  TGI: > 100 µM
LOX IMVI melanoma
  TGI: > 100 µM
NCI-H522 lung
  TGI: > 100 µM
NCI-H460 lung
  TGI: > 100 µM
SNB-19 CNS
  TGI: > 100 µM
NCI/ADR-RES ovarian
  TGI: > 100 µM
HL-60(TB) leukemia
  TGI: > 100 µM
IGROV1 ovarian
  TGI: > 100 µM
MDA-MB-435
  TGI: > 100 µM
SNB-75 CNS
  TGI: > 100 µM
SK-OV-3 ovarian
  TGI: > 100 µM
DU-145 prostate
  TGI: > 100 µM
SN12C renal
  TGI: > 100 µM
T-47D breast
  TGI: > 100 µM
M14 melanoma
  TGI: > 100 µM
SK-MEL-28 melanoma
  TGI: > 100 µM
NCI-H23 lung
  TGI: > 100 µM
HOP-62 NSCLC
  TGI: > 100 µM
CAKI-1 renal
  TGI: > 100 µM
UACC-257 melanoma
  TGI: > 100 µM
COLO 205 colon
  TGI: > 100 µM
BT-549 breast
  TGI: > 100 µM
CCRF-CEM leukemia
  TGI: > 100 µM
HCC-2998 colon
  TGI: > 100 µM
MCF7 breast
  TGI: > 100 µM
KM12 colon
  TGI: > 100 µM
EKVX NSCLC
  TGI: > 100 µM
RPMI-8226 leukemia
  TGI: > 100 µM
NCI-H226 lung
  TGI: > 100 µM
SF-268 CNS
  TGI: > 100 µM
MDA-MB-231 breast
  TGI: > 100 µM
SW-620 colon
  TGI: > 100 µM
HS 578T breast
  TGI: > 100 µM
ACHN renal
  TGI: > 100 µM
HCT-116 colon
  TGI: > 100 µM
786-0 renal
  TGI: > 100 µM
SK-MEL-5 melanoma
  TGI: > 100 µM
OVCAR-4 ovarian
  TGI: > 100 µM
UO-31 renal
  TGI: > 100 µM
HCT-15 colon
  TGI: > 100 µM
